# In PubChem BioAssay (NCI):
# Several values for one entry are separate records, joined by “and”; a condition that tells them apart may be missing. Equal entries are not always repeated.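 Briefly, cells in 96-well plates were exposed to five compound concentrations for 48 h, and endpoints were estimated by linear interpolation. GI50 is the concentration that inhibits growth by half. TGI marks complete inhibition of growth.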
# System: HCT-116 colon
# Test: growth of human tumour cells (NCI), 48 h
Structure (SMILES),GI50,TGI
O=C(OCc1ccc2cccc(O)c2n1)N1CCN(C(=O)c2cc3cc(F)ccc3[nH]2)CC1,0.357 µM,1.32 µM
C[As](C)SC1OC(CO)C(O)C1O (centres undefined),0.302 µM,1.24 µM
CCCCCCCCCC/C=C/CC(=O)SCCNC(=O)CCNC(=O)[C@@H](O)C(C)(C)COP(=O)(O)OP(=O)(O)OCC1OC(n2cnc3c(N)ncnc32)C(O)C1OP(=O)(O)O (some centres undefined),,> 10 µM
Cn1c(=O)c2c(nc(Nc3cc(=O)[nH]c(=O)[nH]3)n2Cc2ccccc2)n(C)c1=O,> 100 µM,> 100 µM
COc1ccc2c(c1)CCC1C2CC[C@@]2(C)C1CC1=CC(COC(C)=O)C3C(=O)c4ccccc4C(=O)C3C12 (some centres undefined),> 100 µM,> 100 µM
C=C(F)C(=O)N1CCN(c2nc(OC[C@@H]3CCCN3C)nc3c2CCN(c2cccc4cccc(Cl)c24)C3)C[C@@H]1CC#N,0.562 µM,1.88 µM
Cc1c2cccnc2c(C)c2c1c1cc(CO)ccc1n2C,0.42 µM,3.26 µM
CC/C(=C(/c1ccc(OCCN(C)C)cc1)c1ccc(OC(=O)CCCCC(=O)c2c(C)[nH]c(/C=C3\N=C(c4ccc[nH]4)C=C3OC)c2C)cc1)c1ccccc1,3.55 µM,13.9 µM
CC[C@]12C=CCN3CC[C@@]4(c5ccc(OC)cc5N(C)[C@H]4[C@@](O)(C(=O)OC)[C@@H]1OC(=O)CCC[P+](c1ccccc1)(c1ccccc1)c1ccccc1)[C@@H]32,0.727 µM and 0.627 µM,5.59 µM and 10.4 µM
CC(=O)OC1Oc2ccccc2-c2oc(=O)c(-c3cc(=O)oc4cc(O)ccc34)cc21 (centres undefined),25 µM,> 100 µM
Ic1ccc(Nc2nc3nonc3nc2Nc2ccc(I)cc2)cc1,0.135 µM,> 100 µM
CC(SC(C)C(=O)N/N=C/c1cccc(Cl)c1)C(=O)N/N=C\c1cccc(Cl)c1 (centres undefined),2.65 µM,7.94 µM
CCOC(=O)/C=C/C(C(=O)/C=C/c1ccc(OC2CCCCO2)c(OC)c1)=C(O)\C=C\c1ccc(OC2CCCCO2)c(OC)c1 (centres undefined),2.09 µM,4.76 µM
Cc1ccc(Cl)cc1Nc1nc(C(F)(F)F)ccc1C(=O)N1CCN(c2ccc(F)cc2)CC1,11.9 µM,26.3 µM
COc1ccc(OC)c(NC(=O)C(=O)NNC(=O)c2sc(NNC(C)=O)nc2C)c1,,> 100 µM
CCCCc1c(OC)cc(O)c2c1C(=O)c1[nH]c(C(=O)O)c(O)c(=O)c1C2=O,,> 100 µM
O=C(Nc1ccc(OS(=O)(=O)c2ccccc2)cc1)C12CC3CC(CC(C3)C1)C2,2.5 µM,> 100 µM
CCN1CCN(c2ccc(Nc3cc(N(C)C(=O)Nc4c(Cl)c(OC)cc(OC)c4Cl)ncn3)cc2)CC1,1.73 µM,5.2 µM
CC(C)c1ccc(Nc2ccc3c(OCCCN4CCN(C)CC4)cccc3n2)cc1,5.9 µM,20.6 µM
COc1ccc(N(C)c2ncnc3occ(C)c23)cc1,< 0.01 µM,0.197 µM
COC(=O)c1cc2c(cc1O)[C@@H](NC(C)=O)CCc1cc(OC)c(OC)c(OC)c1-2,0.0164 µM,
COc1ccc2c(c1)C(C)Cc1c(Cl)ncnc1N2C (centres undefined),0.434 µM,4.56 µM
COCCOc1cc(F)c2c(Nc3ccc(NC(=O)Cn4cc(C(C)C)nn4)cc3)ncnc2c1,57.9 µM,> 100 µM
C#Cc1cccc(Nc2ncnc3cc(OC)c(OCCCCCCC(=O)NO)cc23)c1,0.0791 µM,3.33 µM
Cc1nnc(S(=O)(=O)c2ccc(N=Nc3c(N)nc(N)nc3N)cc2)s1,,> 100 µM
O=C(c1ccccc1)c1cc(Cl)ccc1OCCCCN1CCN(CCCCOc2ccc(Cl)cc2C(=O)c2ccccc2)CC1,1.79 µM,3.38 µM
Clc1ccc2c(NCCCNc3nccc(Nc4ccc(Br)cc4)n3)ccnc2c1,1.36 µM,3.08 µM
NC(=NCCCOc1ccc(Cl)cc1)Nc1ccc(C(F)(F)F)cc1,1.32 µM,2.74 µM
C=CC1CC12C(=O)C1OC2(C)C2C(=O)c3cc4ccccc4cc3C(=O)C12 (centres undefined),33.5 µM,> 100 µM

# System: MDA-MB-231 breast
# Test: growth of human tumour cells (NCI), 48 h
Structure (SMILES),TGI,GI50
O=C(CCCn1ccnc1[N+](=O)[O-])NCCn1cncc1[N+](=O)[O-],> 100 µM,
Cn1cc(C2=C(c3ccc4ccccc4c3)C(=O)NC2=O)c2ccccc21,> 25 µM,> 25 µM
O=C(OCc1ccc2cccc(O)c2n1)N1CCN(C(=O)c2cc3cc(F)ccc3[nH]2)CC1,2.23 µM,0.966 µM
C[As](C)SC1OC(CO)C(O)C1O (centres undefined),3.69 µM,0.725 µM
CCCCCCCCCC/C=C/CC(=O)SCCNC(=O)CCNC(=O)[C@@H](O)C(C)(C)COP(=O)(O)OP(=O)(O)OCC1OC(n2cnc3c(N)ncnc32)C(O)C1OP(=O)(O)O (some centres undefined),> 10 µM,
OCCN1CN(CCO)CN(c2nc(N3CN(CCO)CN(CCO)C3)nc(N3CN(CCO)CN(CCO)C3)n2)C1,1.83 ng/mL,0.776 ng/mL
Cn1c(=O)c2c(nc(Nc3cc(=O)[nH]c(=O)[nH]3)n2Cc2ccccc2)n(C)c1=O,> 100 µM,> 100 µM
COc1ccc2c(c1)CCC1C2CC[C@@]2(C)C1CC1=CC(COC(C)=O)C3C(=O)c4ccccc4C(=O)C3C12 (some centres undefined),> 100 µM,52.4 µM
C=C(F)C(=O)N1CCN(c2nc(OC[C@@H]3CCCN3C)nc3c2CCN(c2cccc4cccc(Cl)c24)C3)C[C@@H]1CC#N,2.23 µM,0.752 µM
Cc1c2cccnc2c(C)c2c1c1cc(CO)ccc1n2C,13.2 µM,2.61 µM
CC/C(=C(/c1ccc(OCCN(C)C)cc1)c1ccc(OC(=O)CCCCC(=O)c2c(C)[nH]c(/C=C3\N=C(c4ccc[nH]4)C=C3OC)c2C)cc1)c1ccccc1,11.4 µM,1.99 µM
CC[C@]12C=CCN3CC[C@@]4(c5ccc(OC)cc5N(C)[C@H]4[C@@](O)(C(=O)OC)[C@@H]1OC(=O)CCC[P+](c1ccccc1)(c1ccccc1)c1ccccc1)[C@@H]32,1.85 µM and 2.25 µM,0.467 µM and 0.525 µM
CC(=O)OC1Oc2ccccc2-c2oc(=O)c(-c3cc(=O)oc4cc(O)ccc34)cc21 (centres undefined),81.5 µM,24.9 µM
Ic1ccc(Nc2nc3nonc3nc2Nc2ccc(I)cc2)cc1,0.641 µM,0.209 µM
CC(C)(C)C(=O)OCOP(=O)(OCOC(=O)C(C)(C)C)C1CCCN(O)C1=O (centres undefined),20 µM,0.397 µM
CC(SC(C)C(=O)N/N=C/c1cccc(Cl)c1)C(=O)N/N=C\c1cccc(Cl)c1 (centres undefined),28.8 µM,5.87 µM
CCOC(=O)/C=C/C(C(=O)/C=C/c1ccc(OC2CCCCO2)c(OC)c1)=C(O)\C=C\c1ccc(OC2CCCCO2)c(OC)c1 (centres undefined),6.73 µM,2.56 µM
Cc1ccc(Cl)cc1Nc1nc(C(F)(F)F)ccc1C(=O)N1CCN(c2ccc(F)cc2)CC1,24.4 µM,10.3 µM
CCCCc1c(OC)cc(O)c2c1C(=O)c1[nH]c(C(=O)O)c(O)c(=O)c1C2=O,3.49 µM,
O=C(Nc1ccc(OS(=O)(=O)c2ccccc2)cc1)C12CC3CC(CC(C3)C1)C2,> 100 µM,3.79 µM
CCN1CCN(c2ccc(Nc3cc(N(C)C(=O)Nc4c(Cl)c(OC)cc(OC)c4Cl)ncn3)cc2)CC1,4.15 µM,1.99 µM
CC(C)c1ccc(Nc2ccc3c(OCCCN4CCN(C)CC4)cccc3n2)cc1,6.92 µM,2.11 µM
COC(=O)c1cc2c(cc1O)[C@@H](NC(C)=O)CCc1cc(OC)c(OC)c(OC)c1-2,> 100 µM,0.0542 µM
COc1ccc2c(c1)C(C)Cc1c(Cl)ncnc1N2C (centres undefined),2.35 µM,0.365 µM
COCCOc1cc(F)c2c(Nc3ccc(NC(=O)Cn4cc(C(C)C)nn4)cc3)ncnc2c1,> 100 µM,41.6 µM
C#Cc1cccc(Nc2ncnc3cc(OC)c(OCCCCCCC(=O)NO)cc23)c1,2.29 µM,0.274 µM
Cc1nnc(S(=O)(=O)c2ccc(N=Nc3c(N)nc(N)nc3N)cc2)s1,> 100 µM,
O=C(c1ccccc1)c1cc(Cl)ccc1OCCCCN1CCN(CCCCOc2ccc(Cl)cc2C(=O)c2ccccc2)CC1,5.75 µM,2.4 µM
Clc1ccc2c(NCCCNc3nccc(Nc4ccc(Br)cc4)n3)ccnc2c1,3.47 µM,1.79 µM
C=CC1CC12C(=O)C1OC2(C)C2C(=O)c3cc4ccccc4cc3C(=O)C12 (centres undefined),46.4 µM,16 µM
